The target in this test is T1, fennel nsLTP1 (Anethum foeniculum, UniProt C0HLP9).
T1 construct: native mature protein purified from seeds (gel filtration, RP-HPLC); 91 residues, 9433 Da, monomer
T1 sequence (C0HLP9 1-91): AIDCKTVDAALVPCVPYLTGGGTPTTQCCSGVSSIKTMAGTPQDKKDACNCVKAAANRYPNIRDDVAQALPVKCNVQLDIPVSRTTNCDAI
Description: TNS fluorescence displacement. Type of test: binding. As to conditions: 3.5 µM TNS, 4 µM nsLTP1, fatty acid 5-20 µM; 175 mM mannitol, 0.5 mM K2SO4, 0.5 mM CaCl2, 5 mM MES pH 7.0, 25 °C; competitive with TNS.
As for `CCCCCCCCCCCCCCCCCC(=O)O` [stearic acid], the “% of the control fluorescence (nsLTP1-TNS complex)” value (“% of the control fluorescence” below) was 21–59%.

For the compound `CCCCC/C=C\C/C=C\CCCCCCCC(=O)O` [linoleic acid, cis, cis-9,12-Octadecadienoic acid], the “% of the control fluorescence” value was 4–40%.

In the case of `CC/C=C\C/C=C\C/C=C\CCCCCCCC(=O)O` [linolenic acid, all-cis-9,12,15-octadecatrienoic acid], the “% of the control fluorescence” value is 7–59%.

For `CCCCCCCCCCCCCCCC(=O)O` [palmitic acid], the “% of the control fluorescence” value is 40–69%.
